Laboratory results reported in US11014904B2, “1,2,4-triazine-3-amine derivative, preparation method therefor, and use thereof in medicine” (Jiangsu Hengrui Medicine Co., Ltd., priority 2017, dated 2021).

Molecular target: T1, adenosine A2b receptor (A2bR) (Homo sapiens, UniProt P29275)
T1 construct: expressed in transfected cells; host or cells: CHO-K1
T1 sequence (P29275 1-332): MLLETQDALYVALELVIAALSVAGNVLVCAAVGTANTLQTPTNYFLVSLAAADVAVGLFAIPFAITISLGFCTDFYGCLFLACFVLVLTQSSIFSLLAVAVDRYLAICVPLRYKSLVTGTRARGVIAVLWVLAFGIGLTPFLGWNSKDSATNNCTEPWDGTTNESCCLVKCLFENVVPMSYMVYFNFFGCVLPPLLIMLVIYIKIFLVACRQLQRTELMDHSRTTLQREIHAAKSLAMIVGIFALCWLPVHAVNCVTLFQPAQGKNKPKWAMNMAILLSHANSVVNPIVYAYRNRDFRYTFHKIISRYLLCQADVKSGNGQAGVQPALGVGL
Assay: Inhibition of the adenosine A2b receptor cAMP signaling pathway in CHO-K1/A2bR cells (HTRF)
Format: cell-based
Conditions: ethyl carbazole 1 μM, Table 2
From the text: (§1) Determination of the inhibition activity of the compounds of the present invention on the adenosine A2a receptor (A2aR) cAMP signaling pathway, the adenosine A2b receptor (A2bR) cAMP signaling pathway, the adenosine A1 receptor (A1R) cAMP signaling pathway and the adenosine A3 receptor (A3R) cAMP signaling pathway.
(§2) The inhibition activity of the compounds of the present invention on the adenosine A2a receptor (A2aR) cAMP signaling pathway, the adenosine A2b receptor cAMP signaling pathway, the adenosine A1 receptor cAMP signaling pathway and the adenosine A3 receptor cAMP signaling pathway was determined by the following method. The experimental method is briefly described as follows:
2.2 Adenosine A2b Receptor
CHO-K1/A2bR cells were cultured in DMEM/F12 medium containing 10% fetal bovine serum and 1 mg/ml G418. The cells were digested with the cell separation buffer during the experiment. The cells were resuspended in the balanced salt buffer containing 20 mM HEPES and 0.1% bovine serum albumin and counted, and the cell density was adjusted to 10^6 cells/ml. In the 384-well plate, each well was added with 5 μl of cell suspension, and 2.5 μl of test compound (4× concentration) formulated with the balanced salt buffer containing 20 mM HEPES, 0.1% bovine serum albumin, 54 μM rolipram and 2.7 U/ml adenosine deaminase, and the plate was incubated at room temperature for 30 minutes. Each well was then added with 2.5 μl of […] (4× concentration) (Torcis, 1691/10) formulated with the balanced salt buffer containing 20 mM HEPES, 0.1% bovine serum albumin, 54 μM rolipram and 2.7 U/ml adenosine deaminase, and the plate was incubated at room temperature for 30 minutes. The final concentrations of the compounds were: 100000, 10000, 1000, 100, 10, 1, 0.1 and 0 nM. The final concentration of […] was 1 μM. Intracellular cAMP concentration was detected with the cAMP dynamic 2 kit. cAMP-d2 and Anti-cAMP-Eu-Cryptate were diluted respectively with the cAMP lysis buffer at a ratio of 1:4. Each well was added with 5 μl of diluted cAMP-d2, followed by addition of 5 μl of diluted Anti-cAMP-Eu-Cryptate, and the plate was incubated at room temperature in the dark for 1 hour. The HTRF signal values were read by the PHERAstar multi-function microplate reader.

**Q.** How did the IC50 turn out when `Cc1ncnc2ccc(-c3nnc(N)nc3-c3ccc(Cl)cc3)cc12` [Example 46, 5-(4-Chlorophenyl)-6-(4-methylquinazolin-6-yl)-1,2,4-triazin-3-amine] was run?
**A.** 18 nM

**Q.** With `Nc1nnc(-c2cc(Cl)c3ncccc3c2)c(-c2ccccc2)n1` [Example 4, 6-(8-Chloroquinolin-6-yl)-5-phenyl-1,2,4-triazin-3-amine] as the molecule, how does the IC50 read?
**A.** 4 nM

**Q.** How did the IC50 turn out when `Cc1ccnc2ccc(-c3nnc(N)nc3-c3ccccc3)cc12` [Example 14, 6-(4-Methylquinolin-6-yl)-5-phenyl-1,2,4-triazin-3-amine] was run?
**A.** 3 nM

**Q.** How did the IC50 turn out when `Cc1ccc(-c2nc(N)nnc2-c2cc(C)c3ncccc3c2)o1` [Example 5, 5-(5-Methylfuran-2-yl)-6-(8-methylquinolin-6-yl)-1,2,4-triazin-3-amine] was run?
**A.** 46 nM

**Q.** `COc1cc(-c2nnc(N)nc2-c2ccccc2)cc2cccnc12` [Example 25, 6-(8-Methoxyquinolin-6-yl)-5-phenyl-1,2,4-triazin-3-amine] was tested. Which IC50 did it give?
**A.** 4 nM

Molecular target: T2, adenosine A2a receptor (A2aR) (Homo sapiens, UniProt P29274)
T2 construct: expressed in transfected cells; host or cells: CHO-K1
Assay: Inhibition of the adenosine A2a receptor cAMP signaling pathway in CHO-K1/A2aR cells (HTRF)
Format: cell-based
Conditions: CHO-K1/A2aR cells, cAMP, NECA 20 nM; Table 1
From the text: as §1, §2
2.1 Adenosine A2a receptor
CHO-K1/A2aR cells were cultured in DMEM/F12 medium containing 10% fetal bovine serum and 800 μg/ml bleomycin. The cells were digested with the cell separation buffer during the experiment. The cells were resuspended in the balanced salt buffer containing 20 mM HEPES and 0.1% bovine serum albumin and counted, and the cell density was adjusted to 10^6 cells/ml. In the 384-well plate, each well was added with 5 μl of cell suspension, and 2.5 μl of test compound (4× concentration) formulated with the balanced salt buffer containing 20 mM HEPES, 0.1% bovine serum albumin, 54 μM rolipram and 2.7 U/ml adenosine deaminase, and the plate was incubated at room temperature for 30 minutes. Each well was then added with 2.5 μl of […] (4× concentration) formulated with the balanced salt buffer containing 20 mM HEPES, 0.1% bovine serum albumin, 54 μM rolipram and 2.7 U/ml adenosine deaminase, and the plate was incubated at room temperature for 30 minutes. The final concentrations of the compounds were: 10000, 2000, 400, 80, 16, 3.2, 0.64, 0.128, 0.0256, 0.00512, and 0.001024 nM. The final concentration of […] was 20 nM. Intracellular cAMP concentration was detected with the cAMP dynamic 2 kit. cAMP-d2 and Anti-cAMP-Eu-Cryptate were diluted respectively with the cAMP lysis buffer at a ratio of 1:4. Each well was added with 5 μl of diluted cAMP-d2, followed by addition of 5 μl of diluted Anti-cAMP-Eu-Cryptate, and the plate was incubated at room temperature in the dark for 1 hour. The HTRF signal values were read by the PHERAstar multi-function microplate reader.

T2 sequence (P29274 whole entry): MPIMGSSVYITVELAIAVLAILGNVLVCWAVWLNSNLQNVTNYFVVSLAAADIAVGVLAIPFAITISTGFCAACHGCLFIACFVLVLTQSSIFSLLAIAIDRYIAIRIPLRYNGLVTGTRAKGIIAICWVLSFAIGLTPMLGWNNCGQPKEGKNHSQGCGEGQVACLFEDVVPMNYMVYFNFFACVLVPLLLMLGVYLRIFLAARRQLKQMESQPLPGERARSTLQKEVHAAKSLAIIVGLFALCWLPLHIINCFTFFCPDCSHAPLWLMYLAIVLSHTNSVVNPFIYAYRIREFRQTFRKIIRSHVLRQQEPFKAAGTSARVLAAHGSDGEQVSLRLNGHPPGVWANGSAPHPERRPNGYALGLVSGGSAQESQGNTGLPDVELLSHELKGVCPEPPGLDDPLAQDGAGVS

**Q.** With `Cc1ncnc2ccc(-c3nnc(N)nc3-c3ccc(Cl)cc3)cc12` [Example 46, 5-(4-Chlorophenyl)-6-(4-methylquinazolin-6-yl)-1,2,4-triazin-3-amine] as the molecule, how does the IC50 read?
**A.** 1.6 nM

**Q.** With `Nc1nnc(-c2cc(Cl)c3ncccc3c2)c(-c2ccccc2)n1` [Example 4, 6-(8-Chloroquinolin-6-yl)-5-phenyl-1,2,4-triazin-3-amine] as the molecule, how does the IC50 read?
**A.** 0.7 nM

**Q.** For `Cc1ccnc2ccc(-c3nnc(N)nc3-c3ccccc3)cc12` [Example 14, 6-(4-Methylquinolin-6-yl)-5-phenyl-1,2,4-triazin-3-amine], which IC50 is on record?
**A.** 0.1 nM

**Q.** How did the IC50 turn out when `Cc1ccc(-c2nc(N)nnc2-c2cc(C)c3ncccc3c2)o1` [Example 5, 5-(5-Methylfuran-2-yl)-6-(8-methylquinolin-6-yl)-1,2,4-triazin-3-amine] was run?
**A.** 0.4 nM

**Q.** With `COc1cc(-c2nnc(N)nc2-c2ccccc2)cc2cccnc12` [Example 25, 6-(8-Methoxyquinolin-6-yl)-5-phenyl-1,2,4-triazin-3-amine] as the molecule, how does the IC50 read?
**A.** 1.5 nM
